# Measurements taken from patent publication US20140073505A1, “HERBICIDAL COMPOSITIONS COMPRISING AMINOPYRALID AND TRICLOPYR” (DOW AGROSCIENCES LLC, priority 2012, published 2014).
# Structures can show the parent of a compound that is named as a salt.
# What was measured:
# Assay type in all cases: in vivo
# [1] = test system: Eclipta prostrata (L.) L. (eclipta, ECLAL); assay: Postemergence herbicidal activity under field conditions in rice, visual weed control
# Procedure: (§1) These trials were conducted under field conditions in Ibague, Colombia; Geisenbrunn, Germany; and Montarges, France. Trial sites were located in commercially grown fields of common rice (Oryza sativa) or permanent pastures. The rice and pasture crops were grown using normal cultural practices for fertilization, seeding, and maintenance to ensure good growth of the crop and the weeds. The trials were conducted using normal research methodology. Trial plots were 2-3 meters (m) wide by 6 m long. All treatments were applied using a randomized complete block trial design with 3 to 4 replications per treatment. The trial sites had naturally occurring populations of weeds. The weed spectrum included, but was not limited to, Cyperus iria L. (rice flatsedge, CYPIR), Eclipta prostrata (L.) L. (eclipta, ECLAL), Ludwigia linifolia (ludwigia, LUDLI), Taraxacum officinale G. H. Weber ex Wiggers (dandelion, TAROF), Rumex obtusifolius L. (broadleaf dock, RUMOB) and Urtica dioica L. (common nettle, URTDI). The plots were treated with a postemergence foliar application 15 to 20 days after emergence of the rice or during the normal timing of herbicide application used for weed control in pastures/grasslands.
# (§2) Treatments consisted of tank mixes of commercially available formulations of aminopyralid triisopropanolammonium salt (MILESTONE 240SL), triclopyr butotyl (GARLON4 480EC) and an experimental formulation of the aminopyralid potassium salt (GF-389), with all rice treatments tankmixed with adjuvant (CARRIER 80EC) at 0.5% volume per volume (vol/vol) but no adjuvant was used in any of the pasture treatments. The application volume was 200 liters per hectare (L/ha) of water. All applications were made using precision gas hand sprayers using a 2 m boom using flat fan (8002) nozzles to broadcast the treatments over the top of the target crop (rice and pastures) and weeds.
# (§3) The treated plots and control plots were rated blind at various intervals after application. Ratings were based of Percent (%) Visual weed control, where 0 corresponds to no injury and 100 corresponds to complete kill.
# (§4) Colby's equation was used to determine the herbicidal effects expected from the mixtures (Colby, S. R. Calculation of the synergistic and antagonistic response of herbicide combinations. Weeds 1967 15, 20-22).
# (§5) The following equation was used to calculate the expected activity of mixtures containing two active ingredients, A and B:
# (§6) A=observed efficacy of active ingredient A at the same concentration as used in the mixture;
# (§7) B=observed efficacy of active ingredient B at the same concentration as used in the mixture.
# [2] = test system: Ludwigia linifolia (ludwigia, LUDLI); assay: as above
# Procedure: as §1, §2, §3, §4, §5, §6, §7
# [3] = test system: Cyperus iria L. (rice flatsedge, CYPIR); assay: as above
# Procedure: as §1, §2, §3, §4, §5, §6, §7
# [4] = test system: Urtica dioica L. (common nettle, URTDI); assay: Postemergence herbicidal activity under field conditions in pastures, visual weed control
# Procedure: as §1, §2, §3, §4, §5, §6, §7
# [5] = test system: Taraxacum officinale G. H. Weber ex Wiggers (dandelion, TAROF); assay: as above; conditions: for Visual Weed Control (%) TAROF 178 DAA Obs: first 178 DAA column; for Visual Weed Control (%) TAROFI 178 DAA Obs: second 178 DAA column
# Procedure: as §1, §2, §3, §4, §5, §6, §7
# [6] = test system: Rumex obtusifolius L. (broadleaf dock, RUMOB); assay: as above
# Procedure: as §1, §2, §3, §4, §5, §6, §7
compound,measurement,setting,value
"Nc1cc(Cl)nc(C(=O)O)c1Cl [Aminopyralid triisopropanolammonium salt, 4-amino-3,6-dichloro-2-pyridinecarboxylic acid]",Visual Weed Control (%) ECLAL 11 DAA Obs,[1]; aminopyralid 8 g ae/ha alone,76%
same,Visual Weed Control (%) LUDLI 11 DAA Obs,[2]; aminopyralid 8 g ae/ha alone,73%
same,Visual Weed Control (%) CYPIR 11 DAA Obs,[3]; aminopyralid 8 g ae/ha alone,3%
same,Visual Weed Control (%) CYPIR 11 DAA Obs,[3]; aminopyralid 24 g ae/ha alone,23%
same,Visual Weed Control (%) CYPIR 18 DAA Obs,[3]; aminopyralid 8 g ae/ha alone,8%
same,Visual Weed Control (%) CYPIR 18 DAA Obs,[3]; aminopyralid 16 g ae/ha alone,25%
"O=C(O)COc1nc(Cl)c(Cl)cc1Cl [Triclopyr, 2-[(3,5,6-trichloro-2-pyridinyl)oxy]acetic acid]",Visual Weed Control (%) URTDI 342 DAA Obs,[4]; triclopyr 240 g ae/ha alone,33%
same,Visual Weed Control (%) TAROF 13 DAA Obs,"[5]; TAROF, triclopyr 240 g ae/ha alone",27%
same,Visual Weed Control (%) TAROF 13 DAA Obs,"[5]; TAROF, triclopyr 960 g ae/ha alone",38%
same,Visual Weed Control (%) TAROF 122 DAA Obs,[5]; triclopyr 240 g ae/ha alone,0- %
same,Visual Weed Control (%) TAROF 178 DAA Obs,[5]; triclopyr 480 g ae/ha alone,0%
same,Visual Weed Control (%) TAROFI 178 DAA Obs,[5]; triclopyr 960 g ae/ha alone,47%
same,Visual Weed Control (%) TAROF 378 DAA Obs,"[5]; 378 DAA, TAROF, triclopyr 240 g ae/ha alone",10%
same,Visual Weed Control (%) TAROF 378 DAA Exp*,"[5]; 378 DAA, TAROF, triclopyr 480 g ae/ha alone (value printed in Exp* column)",30%
same,Visual Weed Control (%) RUMOB 13 DAA Obs,[6]; triclopyr 480 g ae/ha alone,57%
same,Visual Weed Control (%) ECLAL 11 DAA Obs,[1]; triclopyr 24 g ae/ha alone,6%
same,Visual Weed Control (%) LUDLI 11 DAA Obs,[2]; triclopyr 24 g ae/ha alone,5%
same,Visual Weed Control (%) CYPIR 11 DAA Obs,[3]; triclopyr 24 g ae/ha alone,0%
same,Visual Weed Control (%) CYPIR 11 DAA Obs,[3]; triclopyr 72 g ae/ha alone,1%
same,Visual Weed Control (%) CYPIR 18 DAA Obs,[3]; triclopyr 24 g ae/ha alone,0%
same,Visual Weed Control (%) CYPIR 18 DAA Obs,[3]; triclopyr 48 g ae/ha alone,6%
"Nc1cc(Cl)nc(C(=O)O)c1Cl [Aminopyralid potassium salt, 4-amino-3,6-dichloro-2-pyridinecarboxylic acid]",Visual Weed Control (%) URTDI 342 DAA Obs,[4]; aminopyralid 60 g ae/ha alone,17%
same,Visual Weed Control (%) TAROF 13 DAA Obs,"[5]; first TAROF column, aminopyralid 60 g ae/ha alone",57%
same,Visual Weed Control (%) TAROF 13 DAA Obs,"[5]; second TAROF column, aminopyralid 60 g ae/ha alone",45%
same,Visual Weed Control (%) TAROF 122 DAA Obs,[5]; aminopyralid 60 g ae/ha alone,80%
same,Visual Weed Control (%) TAROF 178 DAA Obs,[5]; aminopyralid 60 g ae/ha alone,73%
same,Visual Weed Control (%) TAROFI 178 DAA Obs,[5]; aminopyralid 60 g ae/ha alone,73%
same,Visual Weed Control (%) TAROF 378 DAA Obs,"[5]; 378 DAA, first TAROF column, aminopyralid 60 g ae/ha alone",40%
same,Visual Weed Control (%) TAROF 378 DAA Obs,"[5]; 378 DAA, second TAROF column, aminopyralid 60 g ae/ha alone",40%
same,Visual Weed Control (%) RUMOB 13 DAA Obs,[6]; aminopyralid 60 g ae/ha alone,82%
